Paper PMC11538426 (Scientific Reports, 2024)

Assays:
monocytes = conditions: cited from earlier work
CD3+ T cells = conditions: cited from earlier work
[1] = system: monocyte-derived DCs (moDCs); assay type: cell-based, human; conditions: rCD40L 5 µg/mL, 72 h

Substance	Differentiation of monocytes to CD14neg cells (monocytes)	Induction of IL-12p70 in isolated CD3+ T cells in absence of DC engagement (CD3+ T cells)	Differentiation of cells within moDC cultures to CD14neg DC phenotype ([1]; after 7 days GM-CSF/IL-4, Fig. 1a)	Proliferative capacity of moDCs (Ki67 expression) ([1]; Fig. 1b)
RSKAKNPLYR linked to R8 [IK14800]	does not promote differentiation of monocytes to CD14^neg cells	contributes to induction of IL-12p70	–	–
rCD40L: recombinant CD40 ligand (BioLegend), used at 5 µg/mL	–	–	near-total differentiation of cells to the CD14^neg DC phenotype	not associated with a significant change in the proliferative capacity
